Experimental data: PubChem BioAssay AID248 (DTP/NCI, 2004)
“And” between values parts separate entries of the source, which are not always exact repeats. Identical values can stand only once. Inconclusive results and toxic doses are left out. No stated cut-off is given here; in the data, active means T/C of 150% or more; inactive means T/C below 125%.

Tested on: L1210 leukemia ip in BDF1 mice, survival T/C
Test: NCI In Vivo Anticancer Drug Screen. Data for tumor model L1210 Leukemia (intraperitoneal) in B6D2F1 (BDF1) mice
Details: endpoint: mean survival time, higher = longer survival
Procedure, shortened: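 Tumor cells were implanted, animals were treated, and survival was followed. The result divides the treated measurement by the vehicle-control measurement.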

[1] = dose: 100.0 mg/kg/injection, schedule: Q01DX009 (ip), vehicle: Klucel (hydroxypropylcellulose) (HPC)
[2] = dose: 200.0 mg/kg/injection, schedule: Q01DX009 (ip), vehicle: Klucel (hydroxypropylcellulose) (HPC)
[3] = dose: 400.0 mg/kg/injection, schedule: Q01DX009 (ip), vehicle: Klucel (hydroxypropylcellulose) (HPC)
[4] = dose: 100.0 mg/kg/injection, schedule: Q04DX002 (ip), vehicle: Klucel (hydroxypropylcellulose) (HPC)
[5] = dose: 200.0 mg/kg/injection, schedule: Q04DX002 (ip), vehicle: Klucel (hydroxypropylcellulose) (HPC)
[6] = dose: 400.0 mg/kg/injection, schedule: Q04DX002 (ip), vehicle: Klucel (hydroxypropylcellulose) (HPC)
[7] = dose: 100.0 mg/kg/injection, schedule: Q04DX003 (ip), vehicle: saline
[8] = dose: 200.0 mg/kg/injection, schedule: Q04DX003 (ip), vehicle: saline
[9] = dose: 400.0 mg/kg/injection, schedule: Q04DX003 (ip), vehicle: saline
[10] = dose: 12.5 mg/kg/injection, schedule: Q01DX009 (ip), vehicle: Klucel (hydroxypropylcellulose) (HPC)
[11] = dose: 25.0 mg/kg/injection, schedule: Q01DX009 (ip), vehicle: Klucel (hydroxypropylcellulose) (HPC)
[12] = dose: 100.0 mg/kg/injection, schedule: Q04DX002 (ip), vehicle: saline with Tween-80
[13] = dose: 200.0 mg/kg/injection, schedule: Q04DX002 (ip), vehicle: saline with Tween-80
[14] = dose: 400.0 mg/kg/injection, schedule: Q04DX002 (ip), vehicle: saline with Tween-80

Measured: T/C

C[N+]1(N)CCCCCC1
inactive: dose: 100.0 mg/kg/injection, schedule: Q04DX002 (ip), vehicle: saline 94 % of control | dose: 200.0 mg/kg/injection, schedule: Q04DX002 (ip), vehicle: saline 113 % of control | dose: 400.0 mg/kg/injection, schedule: Q04DX002 (ip), vehicle: saline 87 % of control

O=c1c2ccccc2[nH]c2ccc(Cl)cc12
inactive: [1] 92 % of control | dose: 100.0 mg/kg/injection, schedule: Q04DX003 (ip), vehicle: Klucel (hydroxypropylcellulose) (HPC) 96 % of control | [2] 96 % of control | dose: 200.0 mg/kg/injection, schedule: Q04DX003 (ip), vehicle: Klucel (hydroxypropylcellulose) (HPC) 91 % of control | [3] 86 % of control | dose: 400.0 mg/kg/injection, schedule: Q04DX003 (ip), vehicle: Klucel (hydroxypropylcellulose) (HPC) 100 % of control

CCOC(=O)Nc1cc(NC(c2ccccc2)c2ccccc2)c(N)c(N)n1
inactive: dose: 100.0 mg/kg/injection, schedule: Q01DX001 (ip), vehicle: carboxymethylcellulose (CMC) 102 % of control | [1] 98 % of control | dose: 200.0 mg/kg/injection, schedule: Q01DX001 (ip), vehicle: carboxymethylcellulose (CMC) 122 % of control | [2] 98 % of control | dose: 400.0 mg/kg/injection, schedule: Q01DX001 (ip), vehicle: carboxymethylcellulose (CMC) 107 % of control | [3] 91 % of control

O=[N+]([O-])c1cc2cc(Br)ccc2o1
inactive: dose: 12.5 mg/kg/injection, schedule: Q04DX002 (ip), vehicle: Klucel (hydroxypropylcellulose) (HPC) 102 % of control | dose: 25.0 mg/kg/injection, schedule: Q04DX002 (ip), vehicle: Klucel (hydroxypropylcellulose) (HPC) 106 % of control | dose: 50.0 mg/kg/injection, schedule: Q04DX002 (ip), vehicle: Klucel (hydroxypropylcellulose) (HPC) 97 % of control

C/C(CC(C)C)=N\NC(=O)Nc1cccc(Cl)c1C
inactive: dose: 100.0 mg/kg/injection, schedule: Q01DX001 (ip), vehicle: Klucel (hydroxypropylcellulose) (HPC) 86 % of control | [1] 99 % of control and 103 % of control | [4] 98 % of control and 92 % of control | dose: 200.0 mg/kg/injection, schedule: Q01DX001 (ip), vehicle: Klucel (hydroxypropylcellulose) (HPC) 93 % of control | [2] 96 % of control and 99 % of control | [5] 103 % of control and 92 % of control | dose: 400.0 mg/kg/injection, schedule: Q01DX001 (ip), vehicle: Klucel (hydroxypropylcellulose) (HPC) 93 % of control | [3] 93 % of control and 95 % of control | [6] 95 % of control

CCOc1nsc(OCC)n1
inactive: dose: 75.0 mg/kg/injection, schedule: Q01DX009 (ip), vehicle: other 103 % of control | [7] 98 % of control | dose: 150.0 mg/kg/injection, schedule: Q01DX009 (ip), vehicle: other 107 % of control | [8] 101 % of control | dose: 300.0 mg/kg/injection, schedule: Q01DX009 (ip), vehicle: other 93 % of control | [9] 103 % of control

N#CCOc1ccc(Cl)cc1
inactive: dose: 6.25 mg/kg/injection, schedule: Q01DX009 (ip), vehicle: Klucel (hydroxypropylcellulose) (HPC) 96 % of control | [10] 97 % of control | [11] 95 % of control and 108 % of control | [4] 87 % of control

N#CCCn1c(=O)n(CCC#N)c(=O)n(CCC#N)c1=O
inactive: [4] 104 % of control | [5] 97 % of control | [6] 93 % of control

Cc1cnc(=S)[nH]c1N
inactive: dose: 50.0 mg/kg/injection, schedule: Q01DX009 (ip), vehicle: saline 99 % of control | dose: 100.0 mg/kg/injection, schedule: Q01DX009 (ip), vehicle: saline 95 % of control | [7] 101 % of control | dose: 200.0 mg/kg/injection, schedule: Q01DX009 (ip), vehicle: saline 99 % of control | [8] 105 % of control

CC(=O)Oc1cccc2c1C(=O)OC2=O
inactive: dose: 100.0 mg/kg/injection, schedule: Q01DX001 (ip), vehicle: saline with Tween-80 89 % of control | dose: 200.0 mg/kg/injection, schedule: Q01DX001 (ip), vehicle: saline with Tween-80 108 % of control

OCCOCc1ccccc1
inactive: [7] 104 % of control | [8] 98 % of control | [9] 100 % of control

NCC(O)(c1ccccc1)c1ccccc1
inactive: [10] 101 % of control | [11] 95 % of control | dose: 50.0 mg/kg/injection, schedule: Q01DX009 (ip), vehicle: Klucel (hydroxypropylcellulose) (HPC) 89 % of control | dose: 75.0 mg/kg/injection, schedule: Q01DX001 (ip), vehicle: other 100 % of control

COC(CCC#N)c1ccc(C)cc1 (centres undefined)
inactive: dose: 100.0 mg/kg/injection, schedule: Q01DX009 (sc), vehicle: olive oil, sesame oil, peanut oil 102 % of control | dose: 100.0 mg/kg/injection, schedule: Q04DX003 (sc), vehicle: olive oil, sesame oil, peanut oil 108 % of control | dose: 200.0 mg/kg/injection, schedule: Q01DX009 (sc), vehicle: olive oil, sesame oil, peanut oil 91 % of control | dose: 200.0 mg/kg/injection, schedule: Q04DX003 (sc), vehicle: olive oil, sesame oil, peanut oil 108 % of control | dose: 400.0 mg/kg/injection, schedule: Q01DX009 (sc), vehicle: olive oil, sesame oil, peanut oil 98 % of control | dose: 400.0 mg/kg/injection, schedule: Q04DX003 (sc), vehicle: olive oil, sesame oil, peanut oil 96 % of control

CCCCCC#CC(=O)OCCCC
inactive: [12] 102 % of control | [13] 94 % of control | [14] 108 % of control

Cc1cccc(C)c1NC(=O)C(Cl)Cl
inactive: dose: 50.0 mg/kg/injection, schedule: Q01DX Z (ip), vehicle: methylcellulose (MC) 109 % of control | dose: 73.0 mg/kg/injection, schedule: Q01DX Z (ip), vehicle: methylcellulose (MC) 107 % of control | dose: 112.0 mg/kg/injection, schedule: Q01DX Z (ip), vehicle: methylcellulose (MC) 101 % of control | dose: 168.0 mg/kg/injection, schedule: Q01DX Z (ip), vehicle: methylcellulose (MC) 101 % of control

CC#CC(O)(C(=O)OC1CCN(C)CC1)C(C)CC (centres undefined)
inactive: dose: 50.0 mg/kg/injection, schedule: Q01DX009 (ip), vehicle: saline with Tween-80 92 % of control | dose: 100.0 mg/kg/injection, schedule: Q01DX009 (ip), vehicle: saline with Tween-80 96 % of control | dose: 100.0 mg/kg/injection, schedule: Q04DX003 (ip), vehicle: saline with Tween-80 120 % of control | dose: 200.0 mg/kg/injection, schedule: Q04DX003 (ip), vehicle: saline with Tween-80 102 % of control

O=C1C2=C(C(=O)C3=C1C1CCC3C1)C1CCC2C1
inactive: [12] 90 % of control | [14] 93 % of control

CCCCCCCCCCCC[N+](C)(C)Cc1cc(=O)c(O)co1
inactive: dose: 12.5 mg/kg/injection, schedule: Q04DX002 (ip), vehicle: saline 94 % of control | dose: 25.0 mg/kg/injection, schedule: Q04DX002 (ip), vehicle: saline 105 % of control | dose: 50.0 mg/kg/injection, schedule: Q04DX002 (ip), vehicle: saline 115 % of control

CCN=C(c1ccc(NC(=O)c2ccc(C(=O)Nc3ccc(C(=NCC)N(CC)C(=O)OCC)cc3)cc2)cc1)N(CC)C(=O)OCC
inactive: dose: 2.0 mg/kg/injection, schedule: Q01DX015 (ip), vehicle: methylcellulose (MC) 101 % of control | dose: 4.0 mg/kg/injection, schedule: Q01DX015 (ip), vehicle: methylcellulose (MC) 104 % of control | dose: 8.0 mg/kg/injection, schedule: Q01DX015 (ip), vehicle: methylcellulose (MC) 97 % of control | dose: 16.0 mg/kg/injection, schedule: Q01DX015 (ip), vehicle: methylcellulose (MC) 100 % of control | dose: 31.0 mg/kg/injection, schedule: Q01DX015 (ip), vehicle: methylcellulose (MC) 102 % of control | dose: 62.0 mg/kg/injection, schedule: Q01DX015 (ip), vehicle: methylcellulose (MC) 98 % of control | dose: 125.0 mg/kg/injection, schedule: Q01DX015 (ip), vehicle: methylcellulose (MC) 96 % of control | dose: 250.0 mg/kg/injection, schedule: Q01DX015 (ip), vehicle: methylcellulose (MC) 95 % of control | dose: 375.0 mg/kg/injection, schedule: Q01DX015 (ip), vehicle: methylcellulose (MC) 91 % of control | dose: 500.0 mg/kg/injection, schedule: Q01DX015 (ip), vehicle: methylcellulose (MC) 101 % of control

CCOC(=O)C12CCC(C(=O)OCC)(CC1=O)C(=O)C2
inactive: [12] 88 % of control | [13] 95 % of control | [14] 98 % of control
